molecular target: H1047R PIK3CA enzyme (Homo sapiens, UniProt P42336, H1047R); assay: ADP-Glo Biochemical PIK3CA Kinase Assay
Sequence (P42336 whole entry H1047R): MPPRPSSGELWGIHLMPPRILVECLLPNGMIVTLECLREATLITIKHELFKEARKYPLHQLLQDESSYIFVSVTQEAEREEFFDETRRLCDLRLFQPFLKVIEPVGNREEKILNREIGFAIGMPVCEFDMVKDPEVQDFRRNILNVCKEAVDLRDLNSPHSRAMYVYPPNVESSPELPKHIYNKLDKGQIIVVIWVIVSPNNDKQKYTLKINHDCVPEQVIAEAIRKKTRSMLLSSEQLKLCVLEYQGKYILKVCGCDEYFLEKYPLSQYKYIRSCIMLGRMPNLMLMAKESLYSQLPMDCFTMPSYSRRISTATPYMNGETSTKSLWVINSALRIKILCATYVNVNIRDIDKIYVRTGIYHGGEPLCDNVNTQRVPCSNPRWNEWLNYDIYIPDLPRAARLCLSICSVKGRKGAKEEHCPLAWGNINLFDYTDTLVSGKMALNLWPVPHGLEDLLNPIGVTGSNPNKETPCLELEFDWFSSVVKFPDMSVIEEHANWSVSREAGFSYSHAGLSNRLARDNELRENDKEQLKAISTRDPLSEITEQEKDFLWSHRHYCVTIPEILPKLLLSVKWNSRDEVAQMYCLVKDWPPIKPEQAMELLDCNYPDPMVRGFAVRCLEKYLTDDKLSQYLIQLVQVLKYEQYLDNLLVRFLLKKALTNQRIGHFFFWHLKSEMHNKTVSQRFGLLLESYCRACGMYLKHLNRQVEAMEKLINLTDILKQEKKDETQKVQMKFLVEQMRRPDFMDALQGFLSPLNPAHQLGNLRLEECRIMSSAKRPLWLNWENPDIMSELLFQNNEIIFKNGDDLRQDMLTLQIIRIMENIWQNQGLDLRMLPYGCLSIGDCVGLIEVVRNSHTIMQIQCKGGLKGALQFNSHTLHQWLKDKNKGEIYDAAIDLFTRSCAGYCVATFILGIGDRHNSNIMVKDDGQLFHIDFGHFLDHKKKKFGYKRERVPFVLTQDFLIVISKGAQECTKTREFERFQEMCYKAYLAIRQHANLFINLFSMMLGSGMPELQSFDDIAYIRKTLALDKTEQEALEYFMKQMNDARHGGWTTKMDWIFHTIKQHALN
Sequence (P27986 whole entry partner): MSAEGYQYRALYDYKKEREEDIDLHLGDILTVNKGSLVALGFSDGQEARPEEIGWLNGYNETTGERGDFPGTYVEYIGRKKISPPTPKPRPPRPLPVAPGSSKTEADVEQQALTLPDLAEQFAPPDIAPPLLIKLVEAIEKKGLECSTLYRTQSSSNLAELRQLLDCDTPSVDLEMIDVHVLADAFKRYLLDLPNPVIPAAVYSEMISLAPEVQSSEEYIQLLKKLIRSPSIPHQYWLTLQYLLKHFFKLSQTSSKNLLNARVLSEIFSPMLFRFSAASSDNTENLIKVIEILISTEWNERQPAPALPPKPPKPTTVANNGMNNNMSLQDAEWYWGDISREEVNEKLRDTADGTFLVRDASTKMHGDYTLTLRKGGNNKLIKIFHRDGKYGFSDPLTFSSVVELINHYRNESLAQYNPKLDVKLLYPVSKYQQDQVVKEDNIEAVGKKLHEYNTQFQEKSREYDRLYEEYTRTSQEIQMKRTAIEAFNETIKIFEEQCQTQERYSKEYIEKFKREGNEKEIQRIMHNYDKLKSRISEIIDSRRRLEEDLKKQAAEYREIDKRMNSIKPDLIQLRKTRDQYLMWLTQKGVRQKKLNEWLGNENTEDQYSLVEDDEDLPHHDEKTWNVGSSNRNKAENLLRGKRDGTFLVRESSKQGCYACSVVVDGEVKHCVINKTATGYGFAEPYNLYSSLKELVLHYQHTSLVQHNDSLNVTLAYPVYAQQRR

IC50, 1000 to 10000 nM:
O=C1N[C@@H](c2cc(F)ccc2Cl)c2c(NC(=O)[C@H]3CC[C@@H](C(F)(F)F)C3)cccc21 [Compound I-2085]
Cc1ccccc1C1NC(=O)c2c(P(C)(C)=O)ccc(NC(=O)c3cc(F)cc(C(F)(F)F)c3)c21 (stereo not shown) [Compound I-365]
O=C(Nc1cc(Br)cc2c1C(c1cc(F)ccc1Cl)NC2=O)c1cc(F)ccc1F (stereo not shown) [Compound I-793]
O=C1NC(c2cc(F)ccc2Cl)c2c(NC(=O)c3nsc(Cl)c3Cl)cc(Br)cc21 (stereo not shown) [Compound I-1426]
Cc1cnccc1-c1cc(NC(=O)c2cc(F)cc(C(F)(F)F)c2)c2c(c1)C(=O)N[C@@H]2c1cc(F)ccc1Cl (stereo in doubt) [Compound I-1011]
O=C1N[C@@H](c2cc(F)ccc2Cl)c2c(NC(=O)N3C[C@](O)(C(F)F)c4cc(F)ccc43)cccc21 (single isomer, unassigned) [Compound I-2557]
COc1ccc([C@H](C)N2C(=O)c3cc(Br)cc(N)c3[C@H]2c2cc(F)ccc2Cl)cc1 (racemic) [Compound I-862]
O=C(Nc1cc(Br)cc2c1C(c1cc(F)ccc1Cl)NC2=O)c1ccc(OC(F)F)c(F)c1 (stereo not shown) [Compound I-1286]
COc1ccccc1C1NC(=O)c2cccc(NC(=O)c3csc4ccccc34)c21 (stereo not shown) [Compound I-18]
O=C1NC(c2cc(F)ccc2Cl)c2c(Nc3cccc(=O)[nH]3)cc(Br)cc21 (stereo not shown) [Compound I-1974]
O=C1N[C@@H](c2cc(F)ccc2Cl)c2c(NC(=O)N3C[C@](O)(C(F)(F)F)c4cc(F)ccc43)ccc(Cl)c21 (single isomer, unassigned) [Compound I-2619]
O=C1NC(c2cc(F)ccc2Cl)c2c1cc(-c1cnn(C(F)F)c1)cc2-c1cn2ccc(C(F)(F)F)cc2n1 (stereo not shown) [Compound I-2135]
CC[C@]1(O)CN(C(=O)Nc2cccc3c2[C@H](c2cc(F)ccc2Cl)NC3=O)c2ccc(F)cc21 (single isomer, unassigned) [Compound I-2462]
CC(C)C1CCCN1C(=O)Nc1cccc2c1C(c1cc(F)ccc1Cl)NC2=O (mixture of isomers) [Compound I-2396]
Cc1cc(F)cc(C(=O)Nc2cc(Br)cc3c2C(c2cc(F)ccc2Cl)NC3=O)c1 (stereo not shown) [Compound I-951]
O=C1NC(c2cc(F)ccc2Cl)c2c(NC(=O)c3cccc4cccnc34)cc(Br)cc21 (stereo not shown) [Compound I-602]
O=C1N[C@@H](c2cc(F)ccc2Cl)c2c(NC(=O)N3C[C@](O)(C(F)F)c4cc(F)ccc43)cc(Cl)cc21 (single isomer, unassigned) [Compound I-2590]
O=C1N[C@H](c2cc(F)ccc2Cl)c2c(NC(=O)N3CCc4ccccc43)cc(-c3ccc4ncnn4c3)cc21 (stereo in doubt) [Compound I-1716]
C[C@@H](c1nn[nH]c1C(=O)Nc1cccc2c1[C@H](c1cc(F)ccc1Cl)NC2=O)C(F)(F)F (single isomer, unassigned) [Compound I-2271]

IC50, 500 to 1000 nM:
N#CCc1cc(NC(=O)N2C[C@](O)(C(F)(F)F)c3ccccc32)c2c(c1)C(=O)N[C@H]2c1cc(F)ccc1Cl (single isomer, unassigned) [Compound I-2604]
O=C1NC(c2cc(F)ccc2Cl)c2c(Nc3ncc(C(F)(F)F)cc3F)cc(Br)cc21 (stereo not shown) [Compound I-1118]
O=C(Nc1c(F)ccc2c1C(c1cc(F)ccc1C(F)F)NC2=O)c1cc(F)cc(C(F)(F)F)c1 (stereo not shown) [Compound I-283, N-(3-(2-(Difluoromethyl)-5-fluorophenyl)-5-fluoro-1-oxoisoindolin-4-yl)-3-fluoro-5-(trifluoromethyl)benzamide]
O=C1N[C@@H](c2cc(F)ccc2Cl)c2c(NC(=O)N3C[C@@](O)(C(F)(F)F)c4cc(F)ccc43)cc(-n3ncccc3=O)cc21 (single isomer, unassigned) [Compound I-2534]
N#Cc1cc2nccn2cc1-c1cc(NC(=O)c2cc(F)cc(C(F)(F)F)c2)c2c(c1)C(=O)N[C@@H]2c1cc(F)ccc1Cl [Compound I-1585]
O=C1N[C@@H](c2cc(F)ccc2Cl)c2c(NC(=O)N3C[C@H](O)c4cc(F)ccc43)cccc21 (single isomer, unassigned) [Compound I-2126]
CC1(Nc2cc(NC(=O)c3cc(F)cc(C(F)(F)F)c3)c3c(c2)C(=O)N[C@@H]3c2cc(F)ccc2Cl)COC1 [Compound I-829]

IC50, 100 to 500 nM:
O=C(CO)Nc1cc(NC(=O)c2cc(F)cc(C(F)(F)F)c2)c2c(c1)C(=O)N[C@@H]2c1cc(F)ccc1Cl [Compound I-512]
O=C(Cc1cc(-c2ccc3ncnn3c2)cc2c1C(c1cc(F)ccc1Cl)NC2=O)c1cc(F)cc(C(F)(F)F)c1 (stereo not shown) [Compound I-1772]
O=C1N[C@H](c2cc(F)ccc2Cl)c2c(NC(=O)N3C[C@H](O)c4ccccc43)cc(Br)cc21 (single isomer, unassigned) [Compound I-1513]
Cc1ccccc1C1NC(=O)c2cccc(NC(=O)c3ccn4ccccc34)c21 (stereo not shown) [Compound I-61]
CC(O)c1cc(NC(=O)c2cc(F)cc(C(F)(F)F)c2)c2c(n1)C(=O)NC2c1cc(F)ccc1Cl (stereo not shown) [Compound I-280]

IC50, 10000 to 100000 nM:
CC(C)(CC(=O)Nc1cc(Br)cc2c1C(c1cc(F)ccc1Cl)NC2=O)C(F)(F)F (stereo not shown) [Compound I-1757]
O=C1N[C@H](c2cc(F)ccc2Cl)c2c(NC(=O)[C@H]3CC(C(F)(F)F)C[C@@H](O)C3)cc(Br)cc21 (single isomer, unassigned) [Compound I-2274]
COc1cccc2scc(C(=O)Nc3cccc4c3C(c3ccccc3C)NC4=O)c12 (stereo not shown) [Compound I-78]
COc1ncc2c(c1NC(=O)c1cc(F)cc(C(F)(F)F)c1)C(c1ccccc1Cl)NC2=O (stereo not shown) [Compound I-335, N-(1-(2-chlorophenyl)-6-methoxy-3-oxo-2,3-dihydro-1H-pyrrolo[3,4-c]pyridin-7-yl)-3-fluoro-5-(trifluoromethyl)benzamide]
O=C1NC(c2cc(F)ccc2Cl)c2c(NC(=O)N3CCOCC(F)(F)C3)cc(Br)cc21 (stereo not shown) [Compound I-698]
O=C1NC(c2cc(F)ccc2Cl)c2c(Nc3cc(CO)c(C(F)(F)F)cn3)cccc21 (stereo not shown) [Compound I-1377]
O=C(Nc1cccc2c1C(C13CC4CC(CC(C4)C1)C3)NC2=O)c1cc(F)cc(C(F)(F)F)c1 (stereo not shown) [Compound I-1969]
O=C1NC(c2cc(F)ccc2Cl)c2c1cccc2-n1cnc2ccccc2c1=O (stereo not shown) [Compound I-1516]
O=C(Cc1ccccc1)Nc1cc(-c2ccc3ncnn3c2)cc2c1C(c1cc(F)ccc1Cl)NC2=O (stereo not shown) [Compound I-1665]
Cc1ccccc1C1NC(=O)c2cccc(NC(=O)C(F)(F)F)c21 (stereo not shown) [Compound I-16]
CC(=O)N[C@H]1CC[C@@H](C(=O)Nc2cc(-c3ccc4ncnn4c3)cc3c2C(c2cc(F)ccc2Cl)NC3=O)CC1 (mixture of isomers) [Compound I-1849]
CN1CCC=C(c2cc(-c3ccc4ncnn4c3)cc3c2C(c2cc(F)ccc2Cl)NC3=O)C1 (stereo not shown) [Compound I-2020]
C[S+]([O-])c1cc(-c2ccc3ncnn3c2)cc2c1C(c1cc(F)ccc1Cl)NC2=O (stereo not shown) [Compound I-1940]

IC50, ≤ 100 nM:
Cn1cc(C(=O)Nc2cc(NC(=O)c3cc(F)cc(C(F)(F)F)c3)c3c(c2)C(=O)NC3c2cc(F)ccc2Cl)cn1 (stereo not shown) [Compound I-336]
O=C(Nc1cccc2c1C(c1cc(F)ccc1C(F)F)NC2=O)c1cc(F)cc(C(F)(F)F)c1 (stereo not shown) [Compound I-138]
Cc1ccccc1[C@@H]1NC(=O)c2cc(CO)cc(NC(=O)c3nsc4ccccc34)c21 [Compound I-306]
CC(C)(O)c1cc(NC(=O)c2nsc3ccccc23)c2c(n1)C(=O)NC2c1ccccc1Cl (stereo not shown) [Compound I-250]
Nc1nccc(-c2cc(NC(=O)c3cc(F)cc(C(F)(F)F)c3)c3c(c2)C(=O)NC3c2cc(F)ccc2Cl)n1 (stereo not shown) [Compound I-1090]
C[S@@](=O)(Cc1cc(NC(=O)c2cc(F)cc(C(F)(F)F)c2)c2c(c1)C(=O)N[C@H]2c1cc(F)ccc1Cl)=NC#N (single isomer, unassigned) [Compound I-1565]
CC(=O)N1CCC[C@H]1COc1cc(NC(=O)c2cc(F)cc(C(F)(F)F)c2)c2c(c1)C(=O)NC2c1cc(F)ccc1Cl (single isomer, unassigned) [Compound I-1466]
CS(=O)(=O)n1cc(-c2cc(NC(=O)c3cc(F)cc(C(F)(F)F)c3)c3c(c2)C(=O)N[C@H]3c2cc(F)ccc2Cl)cn1 [Compound I-1996]
O=C(Nc1cc(-n2cnc3ncccc32)cc2c1C(c1cc(F)ccc1Cl)NC2=O)c1cc(F)cc(C(F)(F)F)c1 (stereo not shown) [Compound I-1233]
O=C(Nc1cc(CS(=O)(=O)c2ncccn2)cc2c1C(c1cc(F)ccc1Cl)NC2=O)c1cc(F)cc(C(F)(F)F)c1 (stereo not shown) [Compound I-1570]
O=C(NCCC(O)CO)c1cc(NC(=O)c2cc(F)cc(C(F)(F)F)c2)c2c(c1)C(=O)NC2c1cc(F)ccc1Cl (stereo not shown) [Compound I-1493]
O=C(Nc1cccc2c1C(c1cc(F)ccc1Cl)NC2=O)c1cc(F)c(F)c(C(F)(F)F)c1 (stereo not shown) [Compound I-580]
O=C(Nc1cc(N2CCn3ccnc3C2)cc2c1C(c1cc(F)ccc1Cl)NC2=O)c1cc(F)cc(C(F)(F)F)c1 (stereo not shown) [Compound I-1236]
Nc1nc2ccc(-c3cc(NC(=O)c4cc(F)cc(C(F)(F)F)c4)c4c(c3)C(=O)N[C@@H]4c3cc(F)ccc3Cl)cn2n1 [Compound I-1444]
O=C(Nc1cc(Br)cc2c1C(c1cc(Cl)cc(F)c1F)NC2=O)c1cc(F)cc(C(F)(F)F)c1 (stereo not shown) [Compound I-785]
CC(C)(O)Cc1cc(NC(=O)c2cc(F)cc(C(F)(F)F)c2)c2c(c1)C(=O)NC2c1cc(F)ccc1Cl (stereo not shown) [Compound I-437]
O=C(Nc1cc(Cc2ccc3c(c2)CNC3=O)cc2c1[C@H](c1cc(F)ccc1Cl)NC2=O)c1cc(F)cc(C(F)(F)F)c1 (stereo in doubt) [Compound I-1612]

From US12581252B2, “Substituted pyrrolo[3,4-b]pyridines as PI3K-α inhibitors” (Relay Therapeutics, Inc., priority 2020, dated 2026)
